The values that follow come from patent US12024508B2 (priority 2018, dated 2024).

Molecules are shown by their SMILES.

In data set [1] the test system is Shiga toxin (Stx-1 and/or Stx-2). The class given is cell-based, E. coli.
A further data set relates to VACV-ANCHOR. Description: microbe, parasite or virus in culture. The class given is cell-based, Vaccinia virus. Particulars: for Selectivity index: HeLa/VacV, CC50/CI50; for IC50: Orthopoxvirus vaccinia, HeLa, 48 h, read-out: CI50.
The subject of the next data set is Myxomavirus T1-ANCHOR. Description: Antiviral activity, RK13 cells with Myxomavirus T1-ANCHOR. It is filed as cell-based. Particulars: for Selectivity index: RK13/MyxV T1, CC50/CI50; for IC50: RK-13, 144 h, RK13/MyxV T1, MOI 0.05, fixation at 6 days, read-out: CI50 (the source's name).
Another data set has as its system hCMV-ANCHOR. Description: Antiviral activity, MRC5 cells with hCMV-ANCHOR. The note with it: for Selectivity index: CC50/CI50; for IC50: Human betaherpesvirus 5, 144 h, MOI 1, fixation at 6 days, read-out: CI50 (the source's name). The class given is cell-based.
The nature of data set [2]: Toxicity (cell number) in HeLa cells. The note with it: human.
Data set [3] is described as follows: Toxicity (cell number) in RK13 cells. The note with it: rabbit.
Data set [4] can be described thus: Toxicity (cell number) in MRC5 cells. The note with it: human.
A short description of data set [5]: Toxicity (cell number) in Hep2 cells. Particulars: human.
Another data set relates to RSV. Description: Antiviral activity, Hep2 cells with RSV. The class given is cell-based. Particulars: for Selectivity index: CC50/CI50; for IC50: human respiratory syncytial virus, HEp-2, MOI 0.2, fixation at 72 hours, read-out: CI50 (the source's name).

As to `Cc1nc(-c2ccc(C3N(C)c4ccc(F)cc4C(=O)N3c3ccccc3N)s2)cs1` (stereo not shown) [Compound 1], the IC50 is 14.2 nM in data set [1], 1.05 nM with VACV-ANCHOR, 1.44 nM with Myxomavirus T1-ANCHOR and under 1 nM in the data set on hCMV-ANCHOR. Further, the values for the Selectivity index with VACV-ANCHOR, with Myxomavirus T1-ANCHOR and in the data set on hCMV-ANCHOR were 47,619, 5,181 and 21,500, respectively. The CC50 at 72 h was over 50000 nM in data set [2], 7460 nM in [3], 21500 nM in data set [4] and over 50000 nM in [5].

Consider `Cc1nc(-c2ccc(C3N(C)c4ccc(F)cc4C(=O)N3c3ccccc3O)s2)cs1` (stereo not shown) [Compound 2], for which the IC50 in data set [1] is 20 nM; with VACV-ANCHOR, 3.61 nM; in the data set with Myxomavirus T1-ANCHOR, 14.2 nM; in the data set with hCMV-ANCHOR, under 1 nM; in the data set on RSV it was 20 nM. The Selectivity index in the data set with VACV-ANCHOR is 8,947; in the data set on hCMV-ANCHOR, 21,000; in the data set with RSV, 1,880. In addition, the figures for the CC50 at 72 h in data set [2], in data set [4] and in data set [5] were 32300 nM, 21000 nM and 37600 nM, respectively.

Regarding `Cc1nc(-c2ccc(C3N(C)c4ccc(F)cc4C(=O)N3c3cccc(O)c3)s2)cs1` (stereo not shown) [Compound 3], the IC50 in [1] was found to be 55 nM.

In turn, `Cc1nc(-c2ccc(C3N(C)c4ccccc4C(=O)N3c3ccccc3N)s2)cs1` (stereo not shown) [Compound 4] showed an IC50 in data set [1] of 78.6 nM.

`Cc1nc(-c2ccc(C3N(C)c4ccc(F)cc4C(=O)N3c3ccccc3S(N)(=O)=O)s2)cs1` (stereo not shown) [Compound 5] came in with an IC50 in data set [1] of 35 nM.

As to `Cc1nc(-c2ccc(C3N(C)c4ccc(F)cc4C(=O)N3c3ccc(O)cc3)s2)cs1` (stereo not shown) [Compound 6], the IC50 in data set [1] turned out to be 483 nM; in the data set with VACV-ANCHOR, 628 nM; with Myxomavirus T1-ANCHOR, 5800 nM; in the data set with hCMV-ANCHOR, 281 nM; in the data set with RSV it was 2200 nM. Besides, the Selectivity index in the data set with VACV-ANCHOR is recorded as 32; with Myxomavirus T1-ANCHOR it was 2; in the data set on hCMV-ANCHOR, 59; in the data set on RSV, 12. Moreover, the CC50 at 72 h was found to be 20400 nM in data set [2], 12900 nM in [3], 16700 nM in data set [4] and 25600 nM in [5].

As to `Cc1nc(-c2ccc(C3N(C)c4ccc(F)cc4C(=O)N3c3cccc(O)c3O)s2)cs1` (stereo not shown) [Compound 7], in data set [1], the IC50 is 41 nM.

Turning to `Cc1nc(-c2ccc(C3N(C)c4ccc(F)cc4C(=O)N3c3ccccc3)s2)cs1` (stereo not shown) [Retro-2.1], the IC50 in data set [1] was determined as 100 nM; in the data set with VACV-ANCHOR, 37.8 nM; in the data set with Myxomavirus T1-ANCHOR, 74.5 nM; in the data set on hCMV-ANCHOR, 11.6 nM; with RSV, 162 nM. For the same compound, the Selectivity index is 1,323 with VACV-ANCHOR, 45 with Myxomavirus T1-ANCHOR, 4,310 with hCMV-ANCHOR and 309 with RSV. The CC50 at 72 h was over 50000 nM in data set [2], 3350 nM in data set [3], over 50000 nM in [4] and over 50000 nM in data set [5].

By CC50 is commonly meant the concentration giving 50% cytotoxicity. The low end stands for harm at low concentration, the high end for better tolerance by the cells.
